This passage reports IC50 and pKa results from article PMC2964429 (Biochemistry, 2010).

Data set [1] deals with PgAgD (agmatine deiminase from P. gingivalis) (Porphyromonas gingivalis, UniProt Q7MXM8). Nature of the data set: IC50 determination, agmatine deiminase discontinuous ureido. It is filed as biochemical.
Data set [2] has as its target HpAgD (agmatine deiminase from Helicobacter pylori). The note with it: read-out: IC50 HpAgD; previously reported; cited from earlier work.
For data set [3], the target named is SmAgD (agmatine deiminase from S. mutans) (Streptococcus mutans serotype c, UniProt Q8DW17). The data set is described as follows: IC50 determination, agmatine deiminase discontinuous ureido. It is filed as biochemical.
SmAgD (agmatine deiminase from S. mutans), sequence (Q8DW17 whole entry): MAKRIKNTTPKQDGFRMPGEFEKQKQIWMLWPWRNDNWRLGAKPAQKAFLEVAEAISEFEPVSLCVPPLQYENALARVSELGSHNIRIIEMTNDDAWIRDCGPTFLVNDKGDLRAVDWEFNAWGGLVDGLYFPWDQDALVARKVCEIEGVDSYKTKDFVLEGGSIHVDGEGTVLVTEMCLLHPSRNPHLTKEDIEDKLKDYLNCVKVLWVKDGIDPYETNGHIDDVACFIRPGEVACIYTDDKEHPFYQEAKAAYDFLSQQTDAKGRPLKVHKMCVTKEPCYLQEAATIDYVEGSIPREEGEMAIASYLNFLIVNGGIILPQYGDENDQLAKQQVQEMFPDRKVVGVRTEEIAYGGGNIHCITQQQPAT
The test system of data set [4] is Cys324. The data set is described as follows: chemical modification. As to conditions: 37 °C, 50 mM HEPES, free enzyme (kinact/KI).

On to `N=C(CCl)NCCCCN` [ABCA, N-(4-aminobutyl)-2-chloro-ethanimidamide], for which the IC50 in data set [1] was 15 ± 3 µM; in data set [2], 0.87 ± 0.03 µM.
Regarding `N=C(CF)NCCCCN` [ABFA, N-(4-aminobutyl)-2-fluoro-ethanimidamide], the IC50 was 91 ± 25 µM in data set [1], 6.8 ± 0.26 µM in data set [2] and 0.27 ± 0.1 µM in data set [3].
Consider “Agmatine deiminase (HpAgD) (Helicobacter pylori)”, for which the pKa came out at 9.8 ± 0.1 in data set [4] (2-chloroacetamidine 0-60 mM) and 9.2 ± 0.3 in data set [4] (iodoacetamide 0-20 mM).

As usually defined, the IC50 is the point on the concentration scale where inhibition reaches its midpoint. In general, pKa refers to the pH at which an ionisable group is half protonated.
